Reference: US20230079819A1, “COMPOUNDS AND USES THEREOF” (Foghorn Therapeutics Inc., priority 2019, published 2023)
“And” between values parts separate entries of the source, which are not always exact repeats. Identical values can stand only once.

Experiments:
BRM = target: T1, BRM (Homo sapiens, UniProt P51531); experiment: ATPase catalytic activity of BRM, ADP-Glo in vitro biochemical assay; conditions: ATPase catalytic activity, 30 nM BRM, 400 μM ATP, read-out: BRM IP50 (μM)*
T1 construct: made in house; host or cells: High Five insect cells
T1 sequence (P51531 whole entry): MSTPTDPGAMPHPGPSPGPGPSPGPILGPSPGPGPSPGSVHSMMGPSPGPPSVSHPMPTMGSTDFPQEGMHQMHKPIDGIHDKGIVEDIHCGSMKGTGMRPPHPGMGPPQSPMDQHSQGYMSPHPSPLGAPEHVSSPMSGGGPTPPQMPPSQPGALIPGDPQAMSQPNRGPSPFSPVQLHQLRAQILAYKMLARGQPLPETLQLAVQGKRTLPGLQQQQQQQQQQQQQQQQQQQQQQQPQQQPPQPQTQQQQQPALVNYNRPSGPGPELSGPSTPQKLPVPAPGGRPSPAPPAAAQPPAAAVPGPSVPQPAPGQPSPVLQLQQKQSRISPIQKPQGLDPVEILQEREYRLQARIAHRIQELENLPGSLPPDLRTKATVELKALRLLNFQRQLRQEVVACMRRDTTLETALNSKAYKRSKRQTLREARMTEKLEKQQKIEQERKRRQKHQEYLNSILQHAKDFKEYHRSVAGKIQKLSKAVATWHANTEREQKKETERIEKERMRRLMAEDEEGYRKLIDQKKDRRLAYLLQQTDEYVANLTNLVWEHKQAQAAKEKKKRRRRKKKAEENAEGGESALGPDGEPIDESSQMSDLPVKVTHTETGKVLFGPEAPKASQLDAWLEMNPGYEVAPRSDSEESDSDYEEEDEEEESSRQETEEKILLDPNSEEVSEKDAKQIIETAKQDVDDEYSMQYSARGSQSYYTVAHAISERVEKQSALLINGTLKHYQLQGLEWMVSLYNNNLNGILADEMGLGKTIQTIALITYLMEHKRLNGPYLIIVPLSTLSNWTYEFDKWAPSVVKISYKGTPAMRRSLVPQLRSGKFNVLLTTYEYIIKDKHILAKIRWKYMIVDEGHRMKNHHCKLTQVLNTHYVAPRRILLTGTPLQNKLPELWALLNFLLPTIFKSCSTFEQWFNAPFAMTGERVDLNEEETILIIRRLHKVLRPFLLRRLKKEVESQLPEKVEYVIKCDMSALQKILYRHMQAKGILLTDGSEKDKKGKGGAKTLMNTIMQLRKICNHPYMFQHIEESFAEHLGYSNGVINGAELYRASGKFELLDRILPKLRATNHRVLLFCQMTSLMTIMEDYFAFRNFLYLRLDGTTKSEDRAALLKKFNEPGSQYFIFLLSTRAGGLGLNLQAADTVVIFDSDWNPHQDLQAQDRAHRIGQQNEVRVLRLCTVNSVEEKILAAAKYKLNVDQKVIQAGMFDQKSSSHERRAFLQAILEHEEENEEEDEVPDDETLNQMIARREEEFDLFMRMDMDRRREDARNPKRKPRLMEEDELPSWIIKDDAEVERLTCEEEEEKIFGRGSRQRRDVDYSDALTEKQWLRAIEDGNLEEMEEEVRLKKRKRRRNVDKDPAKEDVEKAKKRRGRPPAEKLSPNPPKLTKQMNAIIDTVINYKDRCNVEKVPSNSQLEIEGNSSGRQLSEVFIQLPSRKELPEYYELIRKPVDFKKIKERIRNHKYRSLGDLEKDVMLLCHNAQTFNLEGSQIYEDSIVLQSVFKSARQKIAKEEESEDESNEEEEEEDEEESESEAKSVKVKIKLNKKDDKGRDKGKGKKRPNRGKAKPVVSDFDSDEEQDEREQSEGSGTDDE

BRG-1 = target: T2, BRG-1 (Homo sapiens, UniProt P51532); experiment: ATPase catalytic activity of BRG-1, ADP-Glo in vitro biochemical assay; conditions: ATPase catalytic activity, 30 nM BRG-1, 400 μM ATP, read-out: BRG1 IP50 (μM)*
T2 construct: made in house; host or cells: High Five insect cells
T2 sequence (P51532 whole entry): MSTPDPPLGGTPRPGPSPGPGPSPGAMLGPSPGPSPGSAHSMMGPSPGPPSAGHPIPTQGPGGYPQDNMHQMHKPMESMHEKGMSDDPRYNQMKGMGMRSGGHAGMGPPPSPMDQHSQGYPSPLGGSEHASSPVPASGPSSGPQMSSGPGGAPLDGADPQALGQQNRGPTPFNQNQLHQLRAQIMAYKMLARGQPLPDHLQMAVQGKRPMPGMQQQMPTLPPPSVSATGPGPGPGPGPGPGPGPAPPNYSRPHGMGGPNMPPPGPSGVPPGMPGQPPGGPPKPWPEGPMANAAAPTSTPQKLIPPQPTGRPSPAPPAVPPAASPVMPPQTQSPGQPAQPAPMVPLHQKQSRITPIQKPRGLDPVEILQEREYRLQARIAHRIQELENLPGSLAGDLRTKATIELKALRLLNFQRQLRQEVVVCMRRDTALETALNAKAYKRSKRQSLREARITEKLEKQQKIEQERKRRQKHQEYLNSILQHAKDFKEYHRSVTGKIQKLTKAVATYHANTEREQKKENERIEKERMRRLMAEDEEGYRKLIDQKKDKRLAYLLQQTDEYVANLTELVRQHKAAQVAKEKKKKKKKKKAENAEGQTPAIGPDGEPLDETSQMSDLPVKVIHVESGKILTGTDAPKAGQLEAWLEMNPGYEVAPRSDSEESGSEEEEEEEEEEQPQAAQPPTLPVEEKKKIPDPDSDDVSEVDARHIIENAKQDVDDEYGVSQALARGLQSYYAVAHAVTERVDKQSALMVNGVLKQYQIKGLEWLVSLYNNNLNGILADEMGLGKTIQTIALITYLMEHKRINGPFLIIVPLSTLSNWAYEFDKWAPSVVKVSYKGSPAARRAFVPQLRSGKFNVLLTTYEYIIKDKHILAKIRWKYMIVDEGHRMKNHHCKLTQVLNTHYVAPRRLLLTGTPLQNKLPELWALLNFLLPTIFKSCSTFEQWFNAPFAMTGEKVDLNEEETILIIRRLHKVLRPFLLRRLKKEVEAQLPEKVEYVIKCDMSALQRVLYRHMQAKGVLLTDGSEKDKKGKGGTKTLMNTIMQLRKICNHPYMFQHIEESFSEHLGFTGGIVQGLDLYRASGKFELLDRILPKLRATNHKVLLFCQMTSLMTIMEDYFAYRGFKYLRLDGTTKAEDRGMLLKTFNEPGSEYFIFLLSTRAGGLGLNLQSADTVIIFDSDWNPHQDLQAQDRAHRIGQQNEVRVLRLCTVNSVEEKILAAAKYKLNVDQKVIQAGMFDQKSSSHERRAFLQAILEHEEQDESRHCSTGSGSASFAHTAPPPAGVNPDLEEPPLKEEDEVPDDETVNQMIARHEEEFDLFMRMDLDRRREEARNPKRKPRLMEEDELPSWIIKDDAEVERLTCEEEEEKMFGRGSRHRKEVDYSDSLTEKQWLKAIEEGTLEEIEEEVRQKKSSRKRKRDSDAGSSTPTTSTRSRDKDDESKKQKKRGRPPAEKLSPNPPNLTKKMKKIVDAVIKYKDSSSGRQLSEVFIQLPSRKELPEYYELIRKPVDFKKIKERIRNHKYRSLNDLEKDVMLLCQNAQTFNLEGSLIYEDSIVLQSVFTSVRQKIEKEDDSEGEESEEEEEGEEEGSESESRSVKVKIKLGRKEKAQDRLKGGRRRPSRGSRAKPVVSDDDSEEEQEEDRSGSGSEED

Q: CS(=O)(=O)n1ccc(C(=O)NCC(=O)Nc2nc(-c3cccc(-c4ccnc(N5CCNCC5)c4)c3)cs2)c1 [Compound 54, 1-(methylsulfonyl)-N-(2-oxo-2-((4-(3-(2-(piperazin-1-yl)pyridin-4-yl)phenyl)thiazol-2-yl)amino)ethyl)-1H-pyrrole-3-carboxamide] was tested. Which IC50 (BRM) did it give?
A: < 0.01 µM

Q: What about the IC50 (BRG-1) of the same compound?
A: < 0.01 µM

Q: Which results are given for Cc1cc(C)cc(-c2cccc(-c3csc(NC(=O)CNC(=O)c4ccn(S(C)(=O)=O)c4)n3)c2)c1 [Compound 55, N-(2-((4-(3′,5′-dimethyl-[1,1′-biphenyl]-3-yl)thiazol-2-yl)amino)-2-oxoethyl)-1-(methylsulfonyl)-1H-pyrrole-3-carboxamide]?
A: IC50 (BRM): < 0.01 µM; IC50 (BRG-1): < 0.01 µM

Q: What does the source list for Cc1cc(-c2cccc(-c3csc(NC(=O)CNC(=O)c4ccn(C(C)(C)C)c4)n3)c2)on1 [Compound 56, 1-(tert-butyl)-N-(2-((4-(3-(3-methylisoxazol-5-yl)phenyl)thiazol-2-yl)amino)-2-oxoethyl)-1H-pyrrole-3-carboxamide]?
A: IC50 (BRM): > 0.01 µM; IC50 (BRG-1): > 0.01 µM

Q: CC(=O)N(C)c1cc(-c2cccc(-c3csc(NC(=O)CNC(=O)c4ccn(S(C)(=O)=O)c4)n3)c2)ccn1 [Compound 57, N-(2-((4-(3-(2-(N-methylacetamido)pyridin-4-yl)phenyl)thiazol-2-yl)amino)-2-oxoethyl)-1-(methylsulfonyl)-1H-pyrrole-3-carboxamide] was tested. Which IC50 (BRM) did it give?
A: < 0.01 µM

Q: What about the IC50 (BRG-1) of the same compound?
A: < 0.01 µM

Q: With Cn1ccc(-c2cccc(-c3csc(NC(=O)CNC(=O)c4ccn(C(C)(C)C)c4)n3)c2)n1 [Compound 58, 1-(tert-butyl)-N-(2-((4-(3-(1-methyl-1H-pyrazol-3-yl)phenyl)thiazol-2-yl)amino)-2-oxoethyl)-1H-pyrrole-3-carboxamide] as the compound, how does the IC50 (BRM) read?
A: > 0.01 µM

Q: What about the IC50 (BRG-1) of the same compound?
A: > 0.01 µM

Q: With CSCC[C@H](NC(=O)c1ccn(S(C)(=O)=O)c1)C(=O)Nc1nc(-c2cccc(-c3ccnc(C)c3)c2)cs1 [Compound 59, (S)—N-(1-((4-(3-(2-methylpyridin-4-yl)phenyl)thiazol-2-yl)amino)-4-(methylthio)-1-oxobutan-2-yl)-1-(methylsulfonyl)-1H-pyrrole-3-carboxamide] as the compound, how does the IC50 (BRM) read?
A: < 0.01 µM

Q: What about the IC50 (BRG-1) of the same compound?
A: < 0.01 µM

Q: For COC[C@H](NC(=O)c1ccn(S(C)(=O)=O)c1)C(=O)Nc1nc(-c2cccc(-c3ccnc(C)c3)c2)cs1 [Compound 60, (S)—N-(3-methoxy-1-((4-(3-(2-methylpyridin-4-yl)phenyl)thiazol-2-yl)amino)-1-oxopropan-2-yl)-1-(methylsulfonyl)-1H-pyrrole-3-carboxamide], which IC50 (BRM) is on record?
A: < 0.01 µM

Q: What about the IC50 (BRG-1) of the same compound?
A: < 0.01 µM

Q: How did the IC50 (BRM) turn out when COC[C@H](NC(=O)c1ccn(S(C)(=O)=O)c1)C(=O)Nc1nc(-c2cccc(-c3cc(C)nc(C)c3)c2)cs1 [Compound 61, (S)—N-(1-((4-(3-(2,6-dimethylpyridin-4-yl)phenyl)thiazol-2-yl)amino)-3-methoxy-1-oxopropan-2-yl)-1-(methylsulfonyl)-1H-pyrrole-3-carboxamide] was run?
A: < 0.01 µM

Q: What about the IC50 (BRG-1) of the same compound?
A: < 0.01 µM

Q: Which results are given for COC[C@H](NC(=O)c1ccn(C(C)(C)C)c1)C(=O)Nc1nc(-c2cccc(-c3ccn(C)n3)c2)cs1 [Compound 62, (S)-1-(tert-butyl)-N-(3-methoxy-1-((4-(3-(1-methyl-1H-pyrazol-3-yl)phenyl)thiazol-2-yl)amino)-1-oxopropan-2-yl)-1H-pyrrole-3-carboxamide]?
A: IC50 (BRM): > 0.01 µM; IC50 (BRG-1): > 0.01 µM

Q: For COC[C@H](NC(=O)c1ccn(C(C)(C)C)c1)C(=O)Nc1nc(-c2ccc3ccn(C)c(=O)c3c2)cs1 [Compound 63, (S)-1-(tert-butyl)-N-(3-methoxy-1-((4-(2-methyl-1-oxo-1,2-dihydroisoquinolin-7-yl)thiazol-2-yl)amino)-1-oxopropan-2-yl)-1H-pyrrole-3-carboxamide], which IC50 (BRM) is on record?
A: > 0.01 µM

Q: What about the IC50 (BRG-1) of the same compound?
A: > 0.01 µM

Q: For COC[C@H](NC(=O)c1ccn(C(C)(C)C)c1)C(=O)Nc1nc(-c2ccc3c(c2)C(=O)N(C)CC3)cs1 [Compound 64, (S)-1-(tert-butyl)-N-(3-methoxy-1-((4-(2-methyl-1-oxo-1,2,3,4-tetrahydroisoquinolin-7-yl)thiazol-2-yl)amino)-1-oxopropan-2-yl)-1H-pyrrole-3-carboxamide], which IC50 (BRM) is on record?
A: > 0.01 µM

Q: What about the IC50 (BRG-1) of the same compound?
A: > 0.01 µM

Q: How did the IC50 (BRM) turn out when COC[C@H](NC(=O)c1ccn(S(C)(=O)=O)c1)C(=O)Nc1nc(-c2cccc(-c3ccncn3)c2)cs1 [Compound 65, (S)—N-(3-methoxy-1-oxo-1-((4-(3-(pyrimidin-4-yl)phenyl)thiazol-2-yl)amino)propan-2-yl)-1-(methylsulfonyl)-1H-pyrrole-3-carboxamide] was run?
A: < 0.01 µM

Q: And the IC50 (BRG-1)?
A: < 0.01 µM

Q: Which IC50 (BRM) does the source give for COC[C@H](NC(=O)c1ccn(C(C)(C)C)c1)C(=O)Nc1nc(-c2cccc(-c3ccncn3)c2)cs1 [Compound 66, (S)-1-(tert-butyl)-N-(3-methoxy-1-oxo-1-((4-(3-(pyrimidin-4-yl)phenyl)thiazol-2-yl)amino)propan-2-yl)-1H-pyrrole-3-carboxamide] here?
A: > 0.01 µM

Q: And the IC50 (BRG-1)?
A: > 0.01 µM

Q: What does the source list for C[C@H](NC(=O)c1ccn(S(C)(=O)=O)c1)C(=O)Nc1nc(-c2cccc(-c3ccncc3)c2)cs1 [Compound 68, N-[(1S)-1-methyl-2-oxo-2-[[4-[3-(4-pyridyl)phenyl]thiazol-2-yl]amino]ethyl]-1-methylsulfonyl-pyrrole-3-carboxamide]?
A: IC50 (BRM): < 0.01 µM; IC50 (BRG-1): < 0.01 µM

Q: How did the IC50 (BRM) turn out when CS(=O)(=O)n1ccc(C(=O)N[C@@H](CO)C(=O)Nc2nc(-c3cccc(-c4ccncc4)c3)cs2)c1 [Compound 69, (S)—N-(3-hydroxy-1-oxo-1-((4-(3-(pyridin-4-yl)phenyl)thiazol-2-yl)amino)propan-2-yl)-1-(methylsulfonyl)-1H-pyrrole-3-carboxamide] was run?
A: < 0.01 µM

Q: What about the IC50 (BRG-1) of the same compound?
A: < 0.01 µM

Q: What does the source list for CS(=O)(=O)n1ccc(C(=O)N[C@@H](CCO)C(=O)Nc2nc(-c3cccc(-c4ccncc4)c3)cs2)c1 [Compound 71, (S)—N-(4-hydroxy-1-oxo-1-((4-(3-(pyridin-4-yl)phenyl)thiazol-2-yl)amino)butan-2-yl)-1-(methylsulfonyl)-1H-pyrrole-3-carboxamide]?
A: IC50 (BRM): < 0.01 µM and > 0.01 µM; IC50 (BRG-1): < 0.01 µM

Q: What does the source list for COCC[C@H](NC(=O)c1ccn(S(C)(=O)=O)c1)C(=O)Nc1nc(-c2cccc(-c3ccncc3)c2)cs1 [Compound 72, (S)—N-(4-methoxy-1-oxo-1-((4-(3-(pyridin-4-yl)phenyl)thiazol-2-yl)amino)butan-2-yl)-1-(methylsulfonyl)-1H-pyrrole-3-carboxamide]?
A: IC50 (BRM): < 0.01 µM; IC50 (BRG-1): < 0.01 µM

Q: Which IC50 (BRM) does the source give for CC(C)[C@H](NC(=O)c1ccn(S(C)(=O)=O)c1)C(=O)Nc1nc(-c2cccc(-c3ccncc3)c2)cs1 [Compound 73, (S)—N-(3-methyl-1-oxo-1-((4-(3-(pyridin-4-yl)phenyl)thiazol-2-yl)amino)butan-2-yl)-1-(methylsulfonyl)-1H-pyrrole-3-carboxamide] here?
A: > 0.01 µM

Q: And the IC50 (BRG-1)?
A: > 0.01 µM

Q: With CC(C)(C)[C@H](NC(=O)c1ccn(S(C)(=O)=O)c1)C(=O)Nc1nc(-c2cccc(-c3ccncc3)c2)cs1 [Compound 74, (S)—N-(3,3-dimethyl-1-oxo-1-((4-(3-(pyridin-4-yl)phenyl)thiazol-2-yl)amino)butan-2-yl)-1-(methylsulfonyl)-1H-pyrrole-3-carboxamide] as the compound, how does the IC50 (BRM) read?
A: > 1 µM

Q: What about the IC50 (BRG-1) of the same compound?
A: > 1 µM

Q: With CC(C)C[C@H](NC(=O)c1ccn(S(C)(=O)=O)c1)C(=O)Nc1nc(-c2cccc(-c3ccncc3)c2)cs1 [Compound 75, (S)—N-(4-methyl-1-oxo-1-((4-(3-(pyridin-4-yl)phenyl)thiazol-2-yl)amino)pentan-2-yl)-1-(methylsulfonyl)-1H-pyrrole-3-carboxamide] as the compound, how does the IC50 (BRM) read?
A: > 0.01 µM

Q: And the IC50 (BRG-1)?
A: > 0.01 µM

Q: Which results are given for CC(C)(C)C[C@H](NC(=O)c1ccn(S(C)(=O)=O)c1)C(=O)Nc1nc(-c2cccc(-c3ccncc3)c2)cs1 [Compound 76, (S)—N-(4,4-dimethyl-1-oxo-1-((4-(3-(pyridin-4-yl)phenyl)thiazol-2-yl)amino)pentan-2-yl)-1-(methylsulfonyl)-1H-pyrrole-3-carboxamide]?
A: IC50 (BRM): > 0.01 µM; IC50 (BRG-1): > 0.01 µM

Q: What does the source list for CN(C)CCC(NC(=O)c1ccn(S(C)(=O)=O)c1)C(=O)Nc1nc(-c2cccc(-c3ccncc3)c2)cs1 (stereo not shown) [Compound 77, N-(4-(dimethylamino)-1-oxo-1-((4-(3-(pyridin-4-yl)phenyl)thiazol-2-yl)amino)butan-2-yl)-1-(methylsulfonyl)-1H-pyrrole-3-carboxamide]?
A: IC50 (BRM): > 0.01 µM; IC50 (BRG-1): > 0.01 µM

Q: Which results are given for CN(C)CC[C@H](NC(=O)c1ccn(S(C)(=O)=O)c1)C(=O)Nc1nc(-c2cccc(-c3ccncc3)c2)cs1 [Compound 78, (S)—N-(4-(dimethylamino)-1-oxo-1-((4-(3-(pyridin-4-yl)phenyl)thiazol-2-yl)amino)butan-2-yl)-1-(methylsulfonyl)-1H-pyrrole-3-carboxamide]?
A: IC50 (BRM): > 0.01 µM; IC50 (BRG-1): > 0.01 µM

Q: With CN(C)CC[C@@H](NC(=O)c1ccn(S(C)(=O)=O)c1)C(=O)Nc1nc(-c2cccc(-c3ccncc3)c2)cs1 [Compound 79, (R)—N-(4-(dimethylamino)-1-oxo-1-((4-(3-(pyridin-4-yl)phenyl)thiazol-2-yl)amino)butan-2-yl)-1-(methylsulfonyl)-1H-pyrrole-3-carboxamide] as the compound, how does the IC50 (BRM) read?
A: > 0.1 µM

Q: And the IC50 (BRG-1)?
A: > 0.1 µM

Q: Which results are given for Cc1cc(-c2cccc(-c3csc(NC(=O)CNC(=O)c4ccn(S(C)(=O)=O)c4)n3)c2)cc(C)n1 [Compound 81, N-(2-((4-(3-(2,6-dimethylpyridin-4-yl)phenyl)thiazol-2-yl)amino)-2-oxoethyl)-1-(methylsulfonyl)-1H-pyrrole-3-carboxamide]?
A: IC50 (BRM): < 0.01 µM; IC50 (BRG-1): < 0.01 µM

Q: With CS(=O)(=O)n1ccc(C(=O)NCC(=O)Nc2nc(-c3cccc(-c4ccnc(C(F)(F)F)c4)c3)cs2)c1 [Compound 82, 1-(methylsulfonyl)-N-(2-oxo-2-((4-(3-(2-(trifluoromethyl)pyridin-4-yl)phenyl)thiazol-2-yl)amino)ethyl)-1H-pyrrole-3-carboxamide] as the compound, how does the IC50 (BRM) read?
A: < 0.01 µM

Q: And the IC50 (BRG-1)?
A: < 0.01 µM
